Three molecules from patent US7732447B2, “Fused [d]pyridazin-7-ones” (Cephalon, Inc., priority 2006, dated 2010) can be followed below.

pIC50: −log10 of the molar value.

One series concerns the target CDK5/GST-p25 (Homo sapiens, UniProt Q00535). Briefly: Cyclin-Dependent Kinase 5 inhibition assay (TRF). Format: biochemical. To be noted: 10 μM ATP; read-out: CDK-5 IC50. The procedure: Compounds were tested for their ability to inhibit the kinase activity of baculovirus-expressed cyclin-dependent kinase-5 complexed with GST-p25 (CDK5/GST-p25) using a a TRF detection system. Each 96-well Costar high binding plate (Corning Costar #3922, Corning, N.Y.) was coated with 100 μL/well of 50 μg/mL recombinant GST-tagged substrate [GST-retinoblastoma protein (Rb) Lot # 5.1A] in TBS. The CDK5/GST-p25 assay mixture (total volume=100 μL/well) consisting of 20 mM HEPES, pH 7.2, 10 μM ATP, 10 mM MgCl2, 5 mM EGTA, 25 mM β-glycerophosphate, 0.1% BSA, 2.5% DMSO, and various concentrations of test compound were then added to the assay plate. Enzyme (2 ng/mL CDK5/GST-p25 Lot # p25/CD5-3) was added and the reaction was allowed to proceed at 37° C. for 20 minutes. Detection of the phosphorylated product was performed by adding 100 μL/well of phospho-Rb (Ser-780) antibody (Cell Signaling #9307, Beverly, Mass.) diluted 1:10,000 in antibody dilution buffer (0.1% BSA in TBS-T). After 1-hour incubation at room temperature, 100 μL/well of Eu—N1 labelled anti-rabbit antibody diluted 1:50,000 in antibody dilution buffer (PerkinElmer Life Sciences #AD0105, Boston, Mass.) was added. Incubation at room temperature then proceeded for 1 hour, followed by addition of 100 μl enhancement solution (PerkinElmer Life Sciences #1244-105, Boston, Mass.). The plate was gently agitated and after a few minutes, the fluorescence of the resulting solution was measured using the PerkinElmer EnVision 2100 (or 2102) multilabel plate reader.

CDK5/GST-p25, sequence (Q00535 whole entry, species assumed): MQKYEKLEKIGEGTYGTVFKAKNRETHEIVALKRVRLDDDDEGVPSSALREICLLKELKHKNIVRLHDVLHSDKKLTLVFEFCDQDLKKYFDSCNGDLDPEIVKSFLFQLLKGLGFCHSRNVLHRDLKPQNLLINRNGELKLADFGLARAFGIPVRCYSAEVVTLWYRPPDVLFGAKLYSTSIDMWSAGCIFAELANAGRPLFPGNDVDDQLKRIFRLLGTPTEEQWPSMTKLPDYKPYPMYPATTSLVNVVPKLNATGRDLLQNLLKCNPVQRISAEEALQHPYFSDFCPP
CDK5/GST-p25, sequence (Q15078 99-307 partner limits assumed, species assumed): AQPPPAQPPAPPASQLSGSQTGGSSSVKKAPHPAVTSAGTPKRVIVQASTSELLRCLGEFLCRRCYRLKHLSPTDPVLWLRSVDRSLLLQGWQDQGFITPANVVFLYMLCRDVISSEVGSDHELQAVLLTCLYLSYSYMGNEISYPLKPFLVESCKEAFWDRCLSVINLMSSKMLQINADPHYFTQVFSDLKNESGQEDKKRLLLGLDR

Take `COc1ccc2c(c1)[nH]c1c(-c3ccc(OCc4ccccc4)cc3)n[nH]c(=O)c12` [Example 4t, 4-(4-Benzyloxy-phenyl)-7-methoxy-2,5-dihydro-pyridazino[4,5-b]indol-1-one]: the melting point (as a rule, the temperature, or range, at which the solid turns liquid) is greater than 300 °C. For the same molecule, the negative-log IC50 (pIC50) (usually the IC50 on a negative log10 scale, so that one unit is a factor of ten) on CDK5/GST-p25 is less than 6.00.
`COc1ccc(-c2n[nH]c(=O)c3c2[nH]c2ccccc23)cc1` [Example 4r, 4-(4-Methoxy-phenyl)-2,5-dihydro-pyridazino[4,5-b]indol-1-one]: the melting point is greater than 300 °C. The negative logarithm of the IC50 (pIC50) on CDK5/GST-p25 is less than 6.00.
For `COc1ccc2c(c1)[nH]c1c(-c3ccc(O)cc3)n[nH]c(=O)c12` [Example 4u, 4-(4-Hydroxy-phenyl)-7-methoxy-2,5-dihydro-pyridazino[4,5-b]indol-1-one], in that order: greater than 300 °C and 6.12.
